Reference: ChEMBL document CHEMBL1140140, “4-[3-(4-cyclopropanecarbonylpiperazine-1-carbonyl)-4-fluorobenzyl]-2H-phthalazin-1-one: a novel bioavailable inhibitor of poly(ADP-ribose) polymerase-1” (J Med Chem, 2008)
Values after ≈ are worked out from the molar mass of the structure shown. Active and inactive are the calls of the source. The rule behind the calls is not given here.

Key:
HeLa = assay: Potentiation factor, ratio of IC50 for methyl methanesulfonate to IC50 for methyl methanesulfonate with 200 nM drug for inhibition of human HeLa B cells
[1] = Solubility of compound in 0.1 M phosphate buffer after 24 hrs by HPLC-UV method; type: physicochemical
[2] = biological target: Poly [ADP-ribose] polymerase 1 (Homo sapiens, UniProt P09874)
Mus musculus = assay: Toxicity in human SW620 cells xenografted mouse assessed as maximum mean body weight loss after 3 days; type: organism-based, SW-620; settings: in vivo, 72 h
SW-620 [3] = assay: Antitumor activity in human SW620 cells xenografted mouse assessed as days to double the relative tumor volume at 50 mg/kg, po once daily for 5 consecutive days; type: functional
[4] = Plasma concentration in mouse at 10 mg/kg, po after 60 mins; type: ADME, organism-based; parameters: dose 10 mg/kg, route oral
[5] = Plasma concentration in mouse at 10 mg/kg, po after 30 mins; type: ADME, organism-based; parameters: dose 10 mg/kg, route oral
Canis familiaris = assay: AUC (0 to infinity) in dog at 2.5 mg/kg, iv and 10 mg/kg, po; type: ADME, organism-based, Canis lupus familiaris, Plasma; settings: in vivo
SW-620 [6] = assay: Potentiation of methyl methanesulfonate-induced growth inhibition of human SW620 cells after 4 days by sulforhodamine B assay; type: functional, cell-based
[7] = Oral bioavailability in dog at 10 mg/kg, po; type: ADME, organism-based, Canis lupus familiaris; settings: in vivo
[8] = Volume of distribution in dog at 2.5 mg/kg, iv and 10 mg/kg, po; type: ADME, organism-based, Canis lupus familiaris; settings: in vivo
Rattus norvegicus [9] = assay: Volume of distribution in rat at 15 mg/kg, iv and po; type: ADME, organism-based; parameters: dose 15 mg/kg, route oral; settings: in vivo
[10] = Half life in dog at 2.5 mg/kg, iv and 10 mg/kg, po; type: ADME, organism-based, Canis lupus familiaris; settings: in vivo
Rattus norvegicus [11] = assay: AUC (0 to infinity) in rat at 15 mg/kg, iv and po; type: ADME, organism-based, Plasma; parameters: dose 15 mg/kg, route oral; settings: in vivo
Homo sapiens = species on record: Homo sapiens; assay: Cytotoxicity against BRCA1-deficient human […] cells upto 4 uM after 7 to 14 days by clonogenic assay; type: functional, cell-based
[12] = Clearance in dog at 2.5 mg/kg, iv and 10 mg/kg, po; type: ADME, organism-based, Canis lupus familiaris; settings: in vivo
[13] = Oral bioavailability in rat at 15 mg/kg, po; type: ADME, organism-based; settings: in vivo
[14] = Half life in rat at 15 mg/kg, iv and po; type: ADME, organism-based; parameters: dose 15 mg/kg, route oral; settings: in vivo
HCC1937 = assay: Cytotoxicity against BRCA1-deficient human HCC1937 cells upto 4 uM after 7 to 14 days by clonogenic assay; type: functional, cell-based

Sequence of Poly [ADP-ribose] polymerase 1 (P09874 whole entry): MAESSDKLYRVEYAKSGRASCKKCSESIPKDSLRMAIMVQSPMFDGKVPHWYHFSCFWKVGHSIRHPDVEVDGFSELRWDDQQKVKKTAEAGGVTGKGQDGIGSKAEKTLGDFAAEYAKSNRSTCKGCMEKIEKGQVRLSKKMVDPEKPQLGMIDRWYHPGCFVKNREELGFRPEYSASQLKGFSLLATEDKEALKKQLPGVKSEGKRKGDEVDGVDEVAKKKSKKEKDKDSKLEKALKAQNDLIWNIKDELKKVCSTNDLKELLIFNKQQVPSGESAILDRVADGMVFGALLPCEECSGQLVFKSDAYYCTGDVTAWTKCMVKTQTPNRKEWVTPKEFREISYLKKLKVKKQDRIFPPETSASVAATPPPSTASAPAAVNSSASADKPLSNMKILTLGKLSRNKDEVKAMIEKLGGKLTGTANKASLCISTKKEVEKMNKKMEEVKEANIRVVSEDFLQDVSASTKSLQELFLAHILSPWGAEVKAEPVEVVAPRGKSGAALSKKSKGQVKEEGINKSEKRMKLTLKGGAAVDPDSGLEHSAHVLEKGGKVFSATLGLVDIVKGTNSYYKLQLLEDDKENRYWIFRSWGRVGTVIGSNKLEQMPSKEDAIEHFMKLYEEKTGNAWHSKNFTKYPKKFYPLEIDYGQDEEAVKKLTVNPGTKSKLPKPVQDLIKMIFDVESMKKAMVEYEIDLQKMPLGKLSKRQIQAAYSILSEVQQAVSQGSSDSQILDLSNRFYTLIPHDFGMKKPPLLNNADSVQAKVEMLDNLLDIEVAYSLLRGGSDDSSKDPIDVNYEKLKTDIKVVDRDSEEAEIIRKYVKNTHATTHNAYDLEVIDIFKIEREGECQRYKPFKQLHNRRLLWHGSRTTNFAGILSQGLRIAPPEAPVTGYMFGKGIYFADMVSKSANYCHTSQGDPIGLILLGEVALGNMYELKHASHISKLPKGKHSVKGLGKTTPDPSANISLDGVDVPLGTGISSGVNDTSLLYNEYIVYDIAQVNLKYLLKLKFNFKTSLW

Compound | IC50 [2] | PF50 (HeLa) | further results
O=C(c1cc(Cc2n[nH]c(=O)c3ccccc23)ccc1F)N1CCN(C(=O)C2CCCO2)CC1 (configuration not stated) | – | 39.4 | solubility at 24 h [1]: 980 µg/mL (≈ 2110 µM)
O=C(c1cccc(Cc2n[nH]c(=O)c3ccccc23)c1)N1CCCN(Cc2ccccc2)CC1 | 18 nM | 2.2 | –
Cn1nnc2c(C(N)=O)ncn2c1=O [TEMOZOLOMIDE] | – | – | Activity (Mus musculus): 6%; Time (SW-620 [3]): 44 days
O=C(c1cc(Cc2n[nH]c(=O)c3ccccc23)ccc1F)N1CCCN(C(=O)N2CCOCC2)CC1 | 8 nM | 2.5 | –
CCCN1CCN(C(=O)c2cc(Cc3n[nH]c(=O)c4ccccc34)ccc2F)CC1 | 6 nM | 7.3 | –
O=C(c1cccc(Cc2n[nH]c(=O)c3ccccc23)c1)N1CCN(c2ccccn2)CC1 | 10 nM | 24.3 | –
O=C(c1cc(Cc2n[nH]c(=O)c3ccccc23)ccc1F)N1CCN(C(=O)C2CCOC2)CC1 (configuration not stated) | 2 nM | 29.8 | concentration at 1 h [4]: 150 ng/mL; concentration at 0.5 h [5]: 160 ng/mL
CN1CCN(C(=O)c2cc(Cc3n[nH]c(=O)c4ccccc34)ccc2F)CC1 | 13 nM | 2.5 | –
O=C(c1cccc(Cc2n[nH]c(=O)c3ccccc23)c1)N1CCNCC1 | – | 3.7 | –
O=C(c1cc(Cc2n[nH]c(=O)c3ccccc23)ccc1F)N1CCN(C(=O)C2CC2)CC1 [OLAPARIB] | – | 25.8 | AUC (Canis familiaris): 511 µg/min/mL; Activity (SW-620 [6]): Dose-dependent effect; bioavailability [7]: 100%; Vd [8]: 1.3 L/kg; concentration at 1 h [4]: 590 ng/mL; Vd (Rattus norvegicus [9]): 1.18 L/kg; half-life [10]: 170 min; AUC (Rattus norvegicus [11]): 304 µg/min/mL; concentration at 0.5 h [5]: 230 ng/mL; Activity (Homo sapiens): Active; clearance [12]: 5.4 mL/min/kg; bioavailability [13]: 100%; half-life [14]: 53 min; Activity (HCC1937): Active
CCN1CCN(C(=O)c2cc(Cc3n[nH]c(=O)c4ccccc34)ccc2F)CC1 | 6 nM | 7.7 | –
O=C(c1cc(Cc2n[nH]c(=O)c3ccccc23)ccc1F)N1CCCNCC1 | – | 12.6 | –
O=C(c1cc(Cc2n[nH]c(=O)c3ccccc23)ccc1F)N1CCNCC1 | 5 nM | 8.6 | –
O=C(c1cc(Cc2n[nH]c(=O)c3ccccc23)ccc1F)N1CCN(C(=O)C2CCCCC2)CC1 | 15 nM | 11.1 | –
O=C(c1cc(Cc2n[nH]c(=O)c3ccccc23)ccc1F)N1CCN(CCO)CC1 | 12 nM | 3.3 | –
O=C(c1cc(Cc2n[nH]c(=O)c3ccccc23)ccc1F)N1CCCN(C(=O)C2CC2)CC1 | 12 nM | 4.2 | –
CCCCN1CCN(C(=O)c2cc(Cc3n[nH]c(=O)c4ccccc34)ccc2F)CC1 | 5 nM | 6.4 | –
O=C(c1cc(Cc2n[nH]c(=O)c3ccccc23)ccc1F)N1CCCN(CCO)CC1 | – | 18 | –
O=C(c1cc(Cc2n[nH]c(=O)c3ccccc23)ccc1F)N1CCN(c2ccccn2)CC1 | 2 nM | >40 | –
CCC(=O)N1CCN(C(=O)c2cc(Cc3n[nH]c(=O)c4ccccc34)ccc2F)CC1 | 5 nM | 24.4 | concentration at 1 h [4]: 300 ng/mL; Vd (Rattus norvegicus [9]): 0.91 L/kg; AUC (Rattus norvegicus [11]): 423 µg/min/mL; concentration at 0.5 h [5]: 670 ng/mL; bioavailability [13]: 40%; half-life [14]: 55 min
O=C(c1cc(Cc2n[nH]c(=O)c3ccccc23)ccc1F)N1CCN(C(=O)N2CCOCC2)CC1 | – | 8.4 | –
O=C(c1cc(Cc2n[nH]c(=O)c3ccccc23)ccc1F)N1CCN(C(=O)C2CCCC2)CC1 | 2 nM | 11.8 | –
O=C(c1ccccc1)N1CCN(C(=O)c2cc(Cc3n[nH]c(=O)c4ccccc34)ccc2F)CC1 | 6 nM | 8.2 | –
CC(=O)N1CCCN(C(=O)c2cc(Cc3n[nH]c(=O)c4ccccc34)ccc2F)CC1 | 12 nM | 3.7 | –
CCS(=O)(=O)N1CCN(C(=O)c2cc(Cc3n[nH]c(=O)c4ccccc34)ccc2F)CC1 | 8 nM | 4.9 | –
O=C(c1cc(Cc2n[nH]c(=O)c3ccccc23)ccc1F)N1CCN(c2ccccc2)CC1 | – | 5.2 | concentration at 1 h [4]: 310 ng/mL; concentration at 0.5 h [5]: 700 ng/mL
O=C(c1cc(Cc2n[nH]c(=O)c3ccccc23)ccc1F)N1CCN(c2ncccn2)CC1 | 3 nM | >40 | –
O=C(c1cc(Cc2n[nH]c(=O)c3ccccc23)ccc1F)N1CCN(CC2CC2)CC1 | – | 6.5 | –

Second part, led by results:

IC50 [2] | Compound | PF50 (HeLa) | further results
39 nM | O=C(c1cccc(Cc2n[nH]c(=O)c3ccccc23)c1)N1CCN(CCO)CC1 | 1.8 | –
12 nM | CCS(=O)(=O)N1CCN(C(=O)c2cccc(Cc3n[nH]c(=O)c4ccccc34)c2)CC1 | 4.6 | –
2 nM | O=C(c1cccc(Cc2n[nH]c(=O)c3ccccc23)c1)N1CCN(c2ncccn2)CC1 | >40 | concentration at 1 h [4]: 140 ng/mL; concentration at 0.5 h [5]: 300 ng/mL; solubility at 24 h [1]: 1 µg/mL (≈ 2.34 µM)
6 nM | CC(=O)N1CCN(C(=O)c2cc(Cc3n[nH]c(=O)c4ccccc34)ccc2F)CC1 | 7.97 | –
51 nM | O=C(c1cccc(Cc2n[nH]c(=O)c3ccccc23)c1)N1CCN(c2ccccc2)CC1 | – | –
20 nM | O=C(c1cccc(Cc2n[nH]c(=O)c3ccccc23)c1)N1CCCN(C(=O)N2CCOCC2)CC1 | 1.4 | –
23 nM | CCS(=O)(=O)N1CCCN(C(=O)c2cccc(Cc3n[nH]c(=O)c4ccccc34)c2)CC1 | 1.4 | –
11 nM | O=C(c1ccccc1)N1CCN(C(=O)c2cccc(Cc3n[nH]c(=O)c4ccccc34)c2)CC1 | 7.2 | –
8 nM | O=C(c1cccc(Cc2n[nH]c(=O)c3ccccc23)c1)N1CCN(C(=O)N2CCOCC2)CC1 | 2.3 | –
18 nM | O=C(c1cccc(Cc2n[nH]c(=O)c3ccccc23)c1)N1CCCN(CCO)CC1 | 5.4 | –
88 nM | CN1CCN(C(=O)c2cccc(Cc3n[nH]c(=O)c4ccccc34)c2)CC1 | 1.02 | –
